{"source": "patent US20040141944A1", "about": "“Inhibition of xenoreactive antibodies” (priority 1998, published 2004)", "key": {"Purified CD19+B cells": {"tested_on": "Purified CD19+B cells", "test": "effect of TPC on T cell-independent anti-Gal B cell activation (ELISPOT)", "type": "cell-based", "details": "TPC (410S) 1 mg/mL pretreatment 30 min or 50 ug/mL daily; 5 day culture with SAC, IL-2, IL-4, anti-CD40", "protocol": "To each well of the first 10 columns of a sterile hydrazine modified polystyrene 96-well plate (Corning Costar, Cambridge, Mass.), 100 μL per well of a solution containing 3.2 mg/mL αGal(1,3)Gal β 1-4 GlcNAc, 3.1 mg/mL EDC and 2.4 mg/mL NHS were added in a darkened cold room and the reaction proceeded for four hours. After careful washing with sterile H2O, the plates were completely covered with plastic strips and stored at 4° C. until use. Plates were blocked with sterile 400 ul/well of PBS/1% HSA for 2 hours at 37° C. Peripheral blood mononuclear cells were isolated by Ficoll-Hypaque (specific gravity, 1.077 g/mL; Pharmacia Fine Chemicals, Piscatawy, N.J.) density gradients at 400 g for 30 min. at 22° C. […] Plates were incubated overnight in the dark at room temperature and single Ab-secreting, spot forming cells (ASC) were visualized, analyzed and counted under low magnification using an inverted phase microscope. Data represents total isotype specific anti-gal Ab-secreting cells/10^6 PBMNCs, calculated from serially diluted cell samples.\nPurified CD19+B cells were obtained by positive selection with the use of anti-CD19+ immunomagnetic beads (Pan-B (CD19); Dynal, Lake Success, N.Y.). […] Following the 5 day culture period, cells were washed extensively, counted, viability determined and the number of ASC determined using the anti-Gal ELISPOT assay. […]"}, "xenoreactive antibodies": {"tested_on": "xenoreactive antibodies", "test": "TPC treatment with discordant xenotransplant (pig heart) in cynomolgous monkeys", "type": "in vivo", "protocol": "The TPC molecule 410S was prepared as described above in Example 5. Three monkeys received 250 mg TPC (# 19-97, 18-97, 21-97), and two monkeys received 250 mg control vehicle (#28-97, 23-97) every 3 days for 2 weeks (total 6 doses/animal) via IV infusion. 250 mg/5 mL per vial was supplied as sterile solution to be injected into 50 ML sterile physiological saline in an IV bag and administered IV at a rate of approximately 2-3 mLs/min. Prior to administration and 15-60 minutes after administration was complete, 1-3 mLs of blood was drawn for serum from each monkey at a site distant from the site of administration. On the day of the 6th dose, each monkey underwent a heterotopic heart transplant following drug infusion. A heart from a transgenic pig which expresses human CD59 and human CD55 was placed in the abdominal position as described (Byrne, et al., 1997, Transplantation 63:149-155) and remained in place up to 6 hours before being explanted.\nFollowing the transplant and explant, the monkeys continued infusion of either TPC or control vehicle, as above, once per day for 9 days. Blood was drawn for serum analysis before and after each administration. The monkeys were monitored for at least 15 days after cessation of TPC administration, and blood was drawn 2 times per week for serum analysis. One monkey died 2 days post-transplant."}}, "data": [{"substance": "(αGal(1,3)Gal β 1-4 GlcNAc)4-PEG [Example 410S]", "values": [{"measurement": "effect on the number of detectable ASCs", "setting": "Purified CD19+B cells", "result": "no effect"}, {"measurement": "effect on total cell yield and viability", "setting": "Purified CD19+B cells", "result": "no effect"}, {"measurement": "xenoreactive antibody levels", "setting": "xenoreactive antibodies; 250 mg TPC, during the 9 days of TPC administration following explant of the pig heart", "result": "maintained low levels"}, {"measurement": "XNA levels", "setting": "xenoreactive antibodies; following cessation of TPC", "result": "rose, but not as dramatically as in the non-TPC-treated control"}]}]}
